# Columns and labels:
# [1] = system: human T-ALL cells (CUTLL1); assay: Genome-wide expression analysis (RNA-seq) of treated T-ALL cells; type: cell-based
# Description: Whole RNA was extracted from 1-5×10^6 T-ALL cells or primary cells using the RNeasy kit (QIAGEN) according to the manufacturer's protocol. Poly(A)^+ RNA was enriched using magnetic oligo(dT)-containing beads (Invitrogen). cDNA was prepared and strand-specific libraries were constructed using the dUTP method as described previously (Zhong et al., “High-Throughput Illumina Strand-Specific RNA Sequencing Library Preparation,” Cold Spring Harb. Protoc. 2011:940-949 (2011), which is hereby incorporated by reference in its entirety). Libraries were sequenced on the IIlumina HiSeq 2000 using the 50-base-pair single-read method.
# Differential gene expression analysis was performed for each matched knockdown versus control pair, separately in each biological or technical replicate in each of two cell lines (CUTLL1 and CEM). Three types of comparisons were tested: (1) JMJD3 knockdown versus Renilla; (2) JMJD3 knockdown versus UTX knockdown; and (3) UTX knockdown versus Renilla. DEGseq44 was used to analyze (a) matched knockdown—Renilla replicates in separate DEGseq runs and (b) all replicates on a combined DEGexp run. For the mouse (Utx knockout) samples, spleen and bone marrow from a wild-type male (referred to as animal #9), as well as spleen from a wild-type female (animal #10), were compared with spleen and bone marrow from a knockout male (#23) and spleen from another knockout male (#27) (see also the GEO accession G5E56696). For illustration, scatter plots (FIG. 4D and FIGS. 5G-I) were created using values obtained from DEGseq analysis of merged biological and/or technical replicates. Gene RNA-seq FPKM values were computed using GenomicTools (Tsirigos et al., “GenomicTools: A Computational Platform for Developing High-Throughput Analytics in Genomics,” Bioinformatics 28:282-283 (2012), which is hereby incorporated by reference in its entirety). The P-value cutoff for differential expression was set at 1×10^−5, with the minimum absolute log2 fold change set at 0.5.
# [2] = system: myeloid leukaemia cells, stromal cells and haematopoietic progenitor cells; assay: Growth of non-T-ALL control cells under GSKJ4; type: cell-based; conditions: FIGS. 12L-12M
# [3] = system: human T-ALL cell lines and primary human T-ALL cells; assay: Cell growth, annexin V apoptosis and BrdU cell cycle analysis of T-ALL cells; type: cell-based; set-up: dose or concentration left out as unconfirmed
# Source text: Mice, Cell Culture and Primary Cell Samples. The Jmjd3 (Satoh et al., “The Jmjd3-Irf4 Axis Regulates M2 Macrophage Polarization and Host Responses Against Helminth Infection,” Nature Immunol. 11:936-944 (2010), which is hereby incorporated in its entirety) and Utx (Welstead et al., “X-linked H3K27me3 Demethylase Utx is Required for Embryonic Development in a Sex-Specific Manner,” Proc. Natl. Acad. Sci. USA 109:13004-13009 (2012), which is hereby incorporated by reference in its entirety) knockout mouse models, as well as the corresponding genotyping strategy, have been described previously. All animals used in this study were treated according to IACU protocols. The human T-ALL cell lines CUTLL1 (Palomero et al., “CUTLL1, a Novel Human T-Cell Lymphoma Cell Line With t(7; 9) Rearrangement, Aberrant NOTCH1 Activation and High Sensitivity to c-Secretase Inhibitors,” Leukemia 20:1279-1287 (2006), which is hereby incorporated by reference in its entirety), P12-Ichikawa, Loucy, DND41, CEM and Jurkat and the myeloid leukaemia cell lines (THP-1 and HL-60), as well as the mouse T-ALL line (720) (Sharma et al., “Notch1 Contributes to Mouse T-cell Leukemia by Directly Inducing the Expression of c-myc,” Mol. Cell. Biol. 26:8022-8031 (2006), which is hereby incorporated by reference in its entirety), were cultured in RPMI 1640 medium supplemented with 20% FBS and penicillin and streptomycin. […] Primary human samples were collected by collaborating institutions with informed consent and were analyzed under the supervision of the Columbia University Medical Center and St. Jude Children's Research Hospital Institutional Review Boards. […]
# T-ALL cells were infected twice with shRNA-expressing retroviruses and selected using puromycin. […] For the cell cycle analysis, 5-bromodeoxyuridine (BrdU; 10 mM) was added for a 1 hour pulse, and incorporation into DNA was determined by using the BrdU Flow Kit (BD Biosciences). Apoptosis was studied by quantification of annexin V staining using the BD Biosciences kit and flow cytometry according to standard protocols provided by the manufacturer. […]
# T-ALL cells = assay: IC50 of GSKJ4 on T-ALL cell proliferation, normalized to control inhibitor GSKJ5; type: cell-based; conditions: Homo sapiens, 120 h, 5 days treatment, FIG. 11A CUTLL1, read-out: IC50 determined for T-ALL cells
# [4] = system: H3K27me3 levels at repressed genes; assay: H3K27me3 ChIP at repressed genes upon GSKJ4 treatment; type: cell-based, human; conditions: 24 to 72 hours post-GSKJ4 treatment
# Description: ChIP experiments were performed as described previously (Ntziachristos et al., “Genetic Inactivation of the Polycomb Repressive Complex 2 in T Cell Acute Lymphoblastic Leukemia,” Nature Med. 18:298-303 (2012), which is hereby incorporated by reference in its entirety). In brief, for the analysis of histone marks, the cells were fixed with 1% formaldehyde for 10 minutes at 25° C. and lysed them by the addition of nucleus incubation buffer (15 mM Tris, pH 7.5, 60 mM KCl, 150 mM NaCl, 15 mM MgCl2, 1 mM CaCl2, 250 mM sucrose and 0.3% NP-40) and incubation at 4° C. for 10 minutes. […]
# First, enriched ChIP-seq windows were identified separately for each of the two samples under comparison using a window-based approach and the binomial probability distribution to compare signal reads with control reads in each window. Subsequently, for each genomic window enriched in at least one of the two samples, the total number of reads was determined, and the window read counts were normalized using quantile normalization across biological replicates and samples before comparison. […] This comparison was performed independently at different H3K27me3 read density levels to control for artificially high fold changes due to low read counts in the denominator. […]
# human T-ALL cells = assay: shRNA knockdown: loss of representation studies and apoptosis assays; type: cell-based; conditions: shRNA treatment
# Description: T-ALL cells were infected twice with shRNA-expressing retroviruses and selected using puromycin. Expression studies took place at different time points during the selection period, and the results are presented from day 4 during selection. […] For the cell cycle analysis, 5-bromodeoxyuridine (BrdU; 10 mM) was added for a 1 hour pulse, and incorporation into DNA was determined by using the BrdU Flow Kit (BD Biosciences). Apoptosis was studied by quantification of annexin V staining using the BD Biosciences kit and flow cytometry according to standard protocols provided by the manufacturer. Doxycycline was used at […] final concentration.
# Protein-G-coated magnetic beads were purchased from Invitrogen. […] Reporter fluorescence was used (as determined by flow cytometry) for the quantification of shRNA.
# [5] = system: T-ALL cell lines (CUTLL1, CEM and P12); assay: Subcutaneous or intravenous xenograft of shRNA-treated T-ALL cell lines; type: in vivo, mouse; conditions: immunocompromised NRG mice; compared with shRenilla-treated cell lines
# Description: Studies were conducted as previously published (Ntziachristos et al., “Genetic Inactivation of the Polycomb Repressive Complex 2 in T Cell Acute Lymphoblastic Leukemia,” Nature Med. 18:298-303 (2012), which is hereby incorporated by reference in its entirety). In both cases, CUTLL1, P12 or CEM T-ALL cells expressing luciferase (FUW-LUC) and the corresponding shRNA (shJMJD3, shUTX or shRenilla) were used. For the intravenous studies, 1×10^6 cells were injected retroorbitally into sublethally irradiated female NRG (NOD Rag1^−/−Il2rg^−/−) mice. For subcutaneous studies, 1×10^6 cells were mixed with an equal volume of BD Matrigel basement membrane and injected into the flanks of female NOD-SCID mice. In both cases, cell growth was monitored every 2 days using IVIS (Caliper, PerkinElmer).
# [6] = GSKJ4 vs control inhibitor GSKJ5
molecule,measurement,setting,value
"CCOC(=O)CCNc1cc(N2CCc3ccccc3CC2)nc(-c2ccccn2)n1 [GSKJ4, ethyl 3-((6-(4,5-dihydro-1H-benzo[d]azepin-3(2H)-yl)-2-(pyridin-2-yl)pyrimidin-4-yl)amino)propanoate]",number of downregulated genes,"[1]; CUTLL1, 72 hours of treatment with GSKJ4",486 genes
same,"growth of myeloid leukaemia cells, stromal cells and haematopoietic progenitor cells",[2],unaffected
same,apoptosis (annexin V),[3]; [6],increased apoptosis
same,cell cycle effect,[3]; [6],cell cycle arrest
same,growth of human T-ALL cell lines and primary human T-ALL cells,"[3]; GSKJ4 vs control inhibitor GSKJ5, 24-72 hours",significantly affected the growth
same,IC50,T-ALL cells,2000 nM
same,H3K27me3 levels at repressed genes,[4],increase in the H3K27me3 levels
"shUTX: shRNA against UTX, SEQ ID NO: 5 (nucleic acid) ACACAAGGTAGTCTACAGAATATAGTGAAGCCACAGATGTATATTCTGTAGACTACCTTGTGG",number of significantly downregulated protein-coding genes,[1]; shRNA knockdown,46 genes
same,number of significantly upregulated protein-coding genes,[1]; shRNA knockdown,189 genes
same,viability of leukaemic cells,human T-ALL cells,not
"shJMJD3A: shRNA against JMJD3, SEQ ID NO: 3 (nucleic acid) CAGGGAAGTTTCGAGAAGTCCTATAGTGAAGCCACAGATGTATAGGACTCTCGAACTTCCCTT",in vivo growth of transplanted T-ALL cells,[5],significant growth disadvantage
"shJMJD3B: shRNA against JMJD3, SEQ ID NO: 4 (nucleic acid) ACACCAGCAGTAGCAACAGCAATAGTGAAGCCACAGATGTATTGCTGTTGCTACTGCTGGTGG",in vivo growth of transplanted T-ALL cells,[5],significant growth disadvantage
